The text below walks through data of US20230346735A1, “Nutritional Composition Comprising Carnitine and Method for Treating or Preventing an Infection in a Mammal” (priority 2020, published 2023).

Marks after values point to notes of the source that are not given here.

For one experiment, the system named is glutathione peroxidase. Description: Antioxidant capacity: glutathione peroxidase in exercised rats. Conditions: 6 weeks. It is filed as in vivo, rat. The protocol: (§1) Fifty-six (56) Male Wistar rats that were 8-week old were obtained. The rats were reared at the temperature of 22 ± 2° C., the humidity of 55 ± 5%, and with a 12-hrs light-12-hrs dark cycle. All procedures involving rats were conducted in strict compliance with the relevant laws, the Animal Welfare Act, Public Health Services Policy, and guidelines established by the Institutional Animal Care and Use Committee of the Institute of the contracted University which completed the study.
(§2) After a week of the adaptation period, the rats were divided into eight equal groups containing seven rats each. The initial body weights of the rats were similar in all the groups (214.53 grams ± 4.67; P > 0.05).
(§3) Groups 1 and 2 were not subjected to an exercise routine. Groups 3-8 were subjected to an exercise regimen consisting of a week training period with an incremental exercise capacity described below. After the week training period the exercise regimen followed was each rat in Groups 3-8 were subjected to 6 weeks of running at 25 m/min during 45 min […]. […] These correspond to 0, 250, 500, 1000, 2000 and 4000 mg per day for humans, respectively.
(§4) The exercised rats were subjected to treadmill exercise on a motorized rodent treadmill (Commat Limited, Ankara, Turkey). The treadmill contained a stimulus grid at the back end of the treadmill giving an electric shock when the animal placed its paw on the grid. […] To eliminate the diurnal variations, all exercise tests were applied during the same time of the day. The week of training period was provided as pre-training practice for the animals to get familiar with the treadmill equipment and handling. In doing so, the rats in the exercise training groups were accustomed by treadmill exercise over 5 days such that: (i) 1st day, 10 m/min for 10 min, (ii) 2nd day, 20 m/min for 10 min, (iii) 3rd day, 25 m/min for 10 min, (iv) 4th day, 25 m/min for 20 min and (v) 5th day, 25 m/min for 30 min. After the training period, the rats in treadmill exercise groups ran on the treadmill 25 m/min for 45 min/ per day and five days per week for 6 weeks according to the protocol described by Sahin et al. Capsaicinoids Improve the Consequences of Physical Activity. Toxicol Rep. 2018;5:598-607, which is hereby incorporated by reference.
(§5) The exercise regimen was used to induce an inflammation and oxidative stress conditions. […] The results of malondialdehyde, superoxide dismutase, catalase, and glutathione peroxidase for each rat group are shown in TABLE 2.

Another experiment relates to malondialdehyde. Kind of experiment: Antioxidant capacity: malondialdehyde in exercised rats. Conditions: 6 weeks. It counts as in vivo, rat. As to the method:
as §1, §2, §3, §4, §5

The next experiment relates to C-Reactive Protein (CRP). Description: Human study, serum ELISA, CRP. It counts as in vivo. As to the method:
(§6) A human study was run with a total of 80 healthy male and female subjects ranging from 21 to 65 years of age, who were active (i.e. 30 minutes per day of moderate activity, 3 days per week) are randomized into two groups. […] Seventy-three subjects completed the trial and biomarker data were analyzed from the sera of the 73 completers. Sera were collected for analysis of C-Reactive Protein (CRP), ACE 1, ACE 2, TMPRSS 2, the Tumor Necrosis Factor alpha (TNF-alpha), and Furin at baseline in the beginning of the trial, at week 5 and 48 hr after an exercise challenge as described (Clinicaltrials.gov NCT04420377). The exercise challenge serves as surrogate to the inflammation stimulus.
(§7) To obtain human sera, venous blood was extracted by venipuncture of the antecubital vein using a 21-gauge syringe and collected into a 10 mL EDTA vacutainer tube (BD Vacutainer®, Becton, Dickinson and Company, Franklin Lakes, NJ) by a certified phlebotomist. […] Human ACE-1, ACE-2, TMPRSS2, Furin, CRP and TNF-alpha protein levels were assessed using commercially available ELISA kits, according the manufacturer recommendations, ACE-1 (R&D systems Inc., Minneapolis, MN, USA), ACE-2 (RayBiotech inc., Peachtree Corners, GA), TMPRSS2 (Novus Biologicals, Littleton, CO), CRP (R&D Systems Inc., Minneapolis, MN), TNF-alpha (Novus Biologicals, Littleton, CO), and Furin (Sigma Aldrich, St. Louis, MO). […]

Another experiment concerns superoxide dismutase. Description: Antioxidant capacity: superoxide dismutase in exercised rats. It counts as in vivo, rat. Particulars: 6 weeks. As to the method:
as §1, §2, §3, §4, §5

A further experiment has as its system Furin. Description: Human study, serum ELISA, Furin. It is filed as in vivo. Conditions: 2 g daily, 5 weeks, 48 hours after exercise challenge, versus placebo. The protocol: as §6, §7
In general terms: ELISA stands for enzyme-linked immunosorbent assay.

Another experiment has as its system ACE-2. Kind of experiment: Rat plasma serum ELISA, ACE-2. Particulars: exercised rats, FIG. 5B. It is filed as in vivo.
[1] abbreviates: Car200: 200 mg/kg oral gavage, no exercise.
The mark [2] stands for this setting: Ex+Car25: exercise, 25 mg/kg oral gavage.
Where [3] appears, read: Ex+Car50: exercise, 50 mg/kg oral gavage.
Where [4] appears, read: Ex+Car100: exercise, 100 mg/kg oral gavage.
The mark [5] stands for this setting: Ex+Car200: exercise, 200 mg/kg oral gavage.
The mark [6] stands for this setting: Ex+Car400: exercise, 400 mg/kg oral gavage.

As for `C[N+](C)(C)C[C@H](O)CC(=O)[O-]` [L-carnitine], the GSHPx in the experiment on glutathione peroxidase (setting [1]) is 48.74±1.11^d U/mg protein; with glutathione peroxidase (setting [2]), 49.75±1.08^d U/mg protein; in the experiment with glutathione peroxidase (setting [3]), 55.91±0.85^c U/mg protein; with glutathione peroxidase (setting [4]), 59.57±0.68^bc U/mg protein; with glutathione peroxidase (setting [5]), 62.58+1.03^b U/mg protein; with glutathione peroxidase (setting [6]), 69.06±1.53^a U/mg protein. In addition, the MDA is 0.693±0.021^b µmol/L in the experiment on malondialdehyde (setting [1]); 0.599±0.021^c µmol/L in the experiment on malondialdehyde (setting [2]); 0.549±0.014^cd µmol/L in the experiment on malondialdehyde (setting [3]); 0.553±0.018^cd µmol/L in the experiment on malondialdehyde (setting [4]); 0.489±0.019^de µmol/L in the experiment on malondialdehyde (setting [5]); 0.419±0.009^e µmol/L in the experiment with malondialdehyde (setting [6]). The “plasma CRP concentration, mean diff Group A versus Group B” value in the experiment on C-Reactive Protein (CRP) (at 48 hr-Post, p<0.005) was -0.55 mg/L. The “serum CRP levels” value with C-Reactive Protein (CRP) (from baseline after 5 weeks of supplementation, compared to placebo group) is on record as “significantly lower”. Further, the SOD with superoxide dismutase (setting [1]) is 95.87±2.47^cd U/mg protein; in the experiment with superoxide dismutase (setting [2]) it was 96.49±0.78^cd U/mg protein; with superoxide dismutase (setting [3]), 102.89±2.69^bc U/mg protein; in the experiment with superoxide dismutase (setting [4]), 109.68±2.49^ab U/mg protein; in the experiment with superoxide dismutase (setting [5]), 114.56±2.70^a U/mg protein; in the experiment with superoxide dismutase (setting [6]), 120.16±3.58^a U/mg protein. Further, the Furin serum levels result with Furin was “significant decrease”. The “serum ACE-2” value in the experiment with ACE-2 was “reduction”.
